Measured values from paper PMC7583931 (International Journal of Molecular Sciences, 2020).
Like-named read-outs stand apart in the source and are kept apart here.

Key:
[1] = biological target: T1, Human BBOX (γ-butyrobetaine hydroxylase) (Homo sapiens, UniProt O75936); test: carnitine formation from gamma-butyrobetaine by UPLC/MS/MS; type: biochemical
T1 construct: gene BBOX1; human recombinant enzyme
T1 sequence (O75936 1-387): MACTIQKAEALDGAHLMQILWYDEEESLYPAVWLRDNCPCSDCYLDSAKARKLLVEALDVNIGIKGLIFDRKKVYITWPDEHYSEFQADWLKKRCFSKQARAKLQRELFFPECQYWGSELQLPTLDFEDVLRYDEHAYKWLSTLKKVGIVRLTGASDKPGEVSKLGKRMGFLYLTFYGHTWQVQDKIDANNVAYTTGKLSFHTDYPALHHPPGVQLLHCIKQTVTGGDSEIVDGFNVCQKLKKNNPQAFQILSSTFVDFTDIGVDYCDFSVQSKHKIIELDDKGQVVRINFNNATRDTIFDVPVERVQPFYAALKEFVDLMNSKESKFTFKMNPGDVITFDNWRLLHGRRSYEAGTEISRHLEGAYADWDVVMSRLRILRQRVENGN
Description: carnitine formation from gamma-butyrobetaine by UPLC/MS/MS on Human BBOX (γ-butyrobetaine hydroxylase)

[2] = biological target: T2, hOCTN2 (carnitine/organic cation transporter OCTN2, SLC22A5) (Homo sapiens, UniProt O76082); test: inhibition of L-carnitine uptake in hOCTN2-transfected cells; type: cell-based; settings: 10 µM carnitine with (N-methyl-3H)-carnitine tracer, Na+ buffer pH 7.4, 37 °C
T2 sequence (O76082 1-557): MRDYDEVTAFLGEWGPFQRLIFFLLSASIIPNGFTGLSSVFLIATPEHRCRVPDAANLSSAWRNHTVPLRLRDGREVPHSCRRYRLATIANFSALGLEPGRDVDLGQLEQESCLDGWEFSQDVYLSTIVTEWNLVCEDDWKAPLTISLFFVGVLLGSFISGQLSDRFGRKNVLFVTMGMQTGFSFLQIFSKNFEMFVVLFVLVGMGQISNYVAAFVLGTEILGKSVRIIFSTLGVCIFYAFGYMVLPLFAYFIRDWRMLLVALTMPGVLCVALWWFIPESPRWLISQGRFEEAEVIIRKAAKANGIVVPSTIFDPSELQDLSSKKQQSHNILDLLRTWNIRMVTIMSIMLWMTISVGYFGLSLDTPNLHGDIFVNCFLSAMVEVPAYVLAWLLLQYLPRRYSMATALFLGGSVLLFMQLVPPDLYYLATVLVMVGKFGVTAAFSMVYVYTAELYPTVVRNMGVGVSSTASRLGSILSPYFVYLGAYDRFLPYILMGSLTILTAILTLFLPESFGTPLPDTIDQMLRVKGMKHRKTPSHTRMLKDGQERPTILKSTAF

Row | IC50 [1] [µM] | IC50 ([1]; 200 µM GBB, 3 mM 2-oxoglutarate, 0.25 mM ferrous ammonium sulfate, 10 mM ascorbate, pH 7.0, 37 °C, 15 min preincubation) [µM] | SMILES | carnitine uptake in presence of 50 μM compound [2]
1 | 97 ± 17 |  | Cc1ccc(NC(=O)CCC[N+](C)(C)C)cc1C [4j] | 
2 | 78 ± 16 |  | C[N+](C)(C)CCCC(=O)Nc1ccc([N+](=O)[O-])cc1 [4k] | significantly inhibited by TCL substrates, including 4i, 4j, and 4k
3 |  | 76 ± 13 | C[N+](C)(C)CCCC(=O)NCCCc1ccccc1 [4t] | 
